Experimental data published in patent publication US8133471B2, “CLK-peptide and SLK-peptide” (New York University, priority 2003, dated 2012).
No end group written: not given here.

Columns and labels:
[1] = test system: denatured collagen type-IV; assay: 99Tc-CLK-Peptide competitive binding to denatured collagen type-IV (gamma counter); conditions: 99Tc-CLK-peptide 10 μg/ml, 50 μl/well; collagen 10 μg/ml
Procedure: FIG. 18 Inhibition of 99Tc-CLK-Peptide binding by unlabeled HUI77.
FIG. 19 Inhibition of Binding of Labeled CLK-Peptide to Denatured Collagen Type-IV by mAb HUI77. Denatured collagen type-IV (10 μg/ml) was coated on microtiter wells and binding of 99Tc-labeled CLK-Peptide in the presence or absence of unlabeled CLK-peptide or mAb HUI77 was measured. As shown in the figure, 99Tc-CLK-peptide (10 μg/ml, 50 μl/well) specifically binds to denatured collagen type-IV (first bar from left). […] 99Tc-CLK-peptide was also allowed to bind to denatured collagen type-IV in the presence or absence of Mab HUI77 (fourth and fifth bars from left). […] These findings provide further evidence that the CLK-peptide binds to a similar if not identical epitope recognized by Mab HUI77.
^99Tc-CLK-Peptide was used in competitive binding studies to further characterize the CLK epitope. To evaluate the ability of HUI77 to compete with binding to denatured type-IV collagen, type-IV collagen was denatured at 60° C. for 15 minutes at a concentration of […] in PBS. […] The supernatant, washes and collagen-coated wells were counted in a gamma counter (1 minute counts in duplicate).
In addition, denatured collagen type-IV (10 μg/ml) was coated on microtiter wells and binding of ^99Tc-labeled CLK-Peptide in the presence or absence of either unlabeled CLK-peptide or mAb HUI77 was measured using a gamma counter. […]

[2] = test system: Glioblastoma (GL261) cells; assay: GL261 glioblastoma cell adhesion to collagen type-IV; assay type: cell-based, murine; conditions: 50 μg/ml
Procedure: FIG. 21 Effects of CLK-Peptide on Glioblastoma Cell Adhesion to Denatured Collagen Type-IV.
To assess the functional significance of the HUI77/CLK cryptic epitope, cell adhesion assays using a glioblastoma cell line were performed. Microtiter plates were coated with denatured collagen type-IV (10 μg/ml). Glioblastoma (GL261) cells were resuspended in adhesion buffer in the presence or absence of CLK-peptide or a non-specific control (CTW) peptide (50 μg/ml) and the […] were incubated in the coated wells for 30 minutes. Non-attached cells were removed by washing, and attached cells quantified by staining with crystal violet.

[3] = test system: Human endothelial cells (HUVECs); assay: Endothelial cord formation in MATRIGEL; assay type: cell-based; conditions: 0 to 100 μg/ml, 24 hours
Procedure: FIG. 6 Effects of CLK Peptide on HUVEC Cord Formation in MATRIGEL®. MATRIGEL was added to 96-well plates and allowed to form three-dimensional gels. […] Representative photos were taken at a magnification of 100×. A. Untreated control. B. CLK 25 μg/ml. C. CLK 50 μg/ml. D. CLK 100 μg/ml. E. Control Peptide 100 μg/ml.
The role that the CLK cryptic collagen epitope plays in regulating endothelial cell morphogenesis and cord formation, processes important in angiogenesis, were investigated. MATRIGEL was diluted in M199 medium and 300 μl were added to the wells of a 48-well culture plate and allowed to polymerize. […] Endothelial morphogenesis and cord formation was monitored with an inverted microscope fitted with a 35 mm camera to document cord formation.

[4] = test system: Human melanoma cells (M21); assay: M21 cell adhesion to denatured or native collagen type-IV or fibronectin (Example 9); assay type: cell-based; conditions: 0-100 μg/ml
Procedure: Non-tissue culture treated 48-well plates were coated with denatured collagen type-IV at 10 μg/ml. […] Cell adhesion was quantified by measuring the O.D. of eluted dye at 600 nm. Data bars represent the mean O.D.±standard deviation from triplicate wells. Assays were completed 2 to 3 times with similar results.
Non-tissue culture treated 48-well plates were coated with native collagen type-IV or fibronectin at 10 μg/ml. Human melanoma cells (M21) were allowed to attach to the coated wells in the presence or absence of CLK-Peptide or control peptide CTW at 0-100 μg/ml. Cell adhesion was quantified by measuring the O.D. of eluted dye at 600 nm. Data bars represent the mean O.D.±standard deviation from triplicate wells. Assays were completed 2 to 3 times with similar results. A. Adhesion to native collagen type-IV. B. Adhesion to Fibronectin.
Adhesion assays were performed to study the effects of CLK-peptide on tumor cell adhesion in vitro. Microtiter wells were coated with either native collagen type-IV or the control ECM protein fibronectin. Malignant melanoma cells (M21) were allowed to bind to the coated substrates in the presence or absence of CLK peptide or a control peptide, CTW.

Human melanoma cells M21 = assay: M21 melanoma cell adhesion to denatured collagen type-IV (Example 2); assay type: cell-based; conditions: M21 cells on denatured collagen type-IV; peptide 250 μg/ml
Source text: FIG. 1 is a chart which illustrates M21 human melanoma cell adhesion to untreated denatured type-IV collagen (NT), CLK-peptide treated denatured collagen type-IV, SLK-peptide treated denatured collagen type-IV, and SDR-peptide treated denatured collagen type-IV.
SLK peptides bind to functional epitopes within denatured collagen type-IV that regulate cellular adhesion. Non-tissue culture treated 48-well plates were coated with denatured collagen type-IV. Human melanoma cells M21 (Scripps Research Institute, La Jolla, Calif.) were allowed to attach to the coated wells in the presence or absence of the synthetic peptides CLK, SLK, and SDR, each peptide was at a concentration of 250 μg/ml. SDR peptide is a commercially available peptide that was used as a control (QED Bioscience, Inc., San Diego, Calif.).
Human denatured collagen type-IV (25 μg/ml) was immobilized on 48-well nontissue culture treated plates. Wells were washed and incubated with 1% BSA (bovine serum albumin) in PBS (phosphate-buffered saline) for one hour at 37° C. Subconfluent […] were harvested, washed, and resuspended in adhesion buffer containing RPMI-1640 medium, 1 mM MgCl2, 0.2 mM MnCl2, and 0.5% BSA. […] Cell adhesion was quantified by measuring the optical density of eluted crystal violet at a wavelength of 600 nm.

With “99Tc-CLK-peptide: 99Tc-labeled CLK-Peptide used in competitive binding studies (CLKQNGGNFSLG; also: 99Tc-labeled, site not given here)” the “binding to denatured collagen type-IV” value [1] was “specifically bound”.

In the case of “CTWPRHHTTDALL (control peptide) [reference compound]”, the “effect on glioblastoma cell adhesion to denatured collagen type-IV” value [2] is reported as “no effect”, the “effect on endothelial cord formation” value [3] is reported as “little if any effect” and the “effect on M21 cell adhesion to fibronectin” value [4] is reported as “Neither CLK-Peptide nor the control peptide had any effect”. For the same substance, the “effect on M21 cell adhesion to native triple helical collagen type-IV” value [4] was “Neither CLK-Peptide nor the control peptide had any effect” and the “effect on M21 cell attachment to denatured collagen type-IV” value [4] was “no effect”.

“NH2-S-L-K-Q-N-G-G-N-F-S-L-C-COOH (H-SLKQNGGNFSLC-OH) [SLK-peptide]” was tested, and the “blockade of melanoma cell adhesion” value (Human melanoma cells M21) was “about 50%”.
